Where a SMILES comes first, the peptide text is derived from it. Bridges are numbered along the chain shown (N, C = ends). [ ]: non-standard residue; d: D form. R8 = C=CCCCCCC[C@@](C)(N)C(=O)O; S5 = C=CCCC[C@](C)(N)C(=O)O
Test: Plasma concentration after tail-vein injection (toxicokinetics);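 for SAH-EJ1 concentration in plasma: BQL means below the quantifiable limit of 0.5 µg/mL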
Type: in vivo, CD-1 mice
Protocol: Toxicology was performed by IITRI. The study was conducted in compliance with the US Food and Drug Administration (FDA) good laboratory practice (GLP) Regulations (Code of Federal Regulations Title 21 Part 58) to evaluate the toxicokinetics, local tolerability, immunogenicity, and potential toxicity of SAH5-EJ1 following three times per week intravenous (IV) dosing for 28 days in mice. Male and female CD-1 IGS [Crl:CD1(ICR)] mice (135 per sex) were received from Wilmington, MA-based Charles River Laboratories, Inc.’s Kingston facility (Stone Ridge, NY).

## CC[C@H](C)[C@H](NC(=O)[C@H](Cc1c[nH]cn1)NC(=O)[C@H](CCCNC(=N)N)NC(=O)[C@H](CCCNC(=N)N)NC(=O)[C@H](CCCNC(=N)N)NC(=O)[C@H](CCSC)NC(=O)[C@H](Cc1ccccc1)NC(=O)[C@H](C)NC(=O)[C@H](CCCNC(=N)N)NC(=O)[C@H](C)NC(=O)[C@H](CCC(N)=O)NC(=O)[C@H](CCCNC(=N)N)NC(=O)[C@H](C)NC(=O)[C@H](C)NC(=O)[C@H](C)NC(=O)[C@H](CCCNC(=N)N)NC(=O)[C@H](C)NC(=O)[C@@H](N)Cc1ccc(O)cc1)C(=O)N[C@H](C(=O)N[C@@H](CCCNC(=N)N)C(=O)N[C@@H](CCCCN)C(=O)N[C@@H](CCCNC(=N)N)C(=O)N[C@]1(C)CCCCCCC=CCCC[C@@](C)(C(=O)N[C@@H](CCCNC(=N)N)C(=O)N[C@@H](CCC(=O)O)C(N)=O)NC(=O)[C@H](CCC(N)=O)NC(=O)[C@H](CC(C)C)NC(=O)[C@H](CC(C)C)NC(=O)[C@H](CCCNC(=N)N)NC(=O)[C@H](CCCNC(=N)N)NC(=O)[C@H](CC(C)C)NC1=O)C(C)C [SAH5-EJ1] (H-YARAAARQARAFMRRRHIVRKR[R8]LRRLLQ[S5]RE-NH2; staple 23-30)
female, 15 mg/kg IV, day 1, 4 h, mouse 1 of 3
  SAH-EJ1 concentration in plasma: BQL (BQL represents below quantifiable limits (0.5 µg/mL))
female, 15 mg/kg IV, day 1, 4 h, mouse 2 of 3
  SAH-EJ1 concentration in plasma: BQL (BQL represents below quantifiable limits (0.5 µg/mL))
female, 15 mg/kg IV, day 1, 4 h, mouse 3 of 3
  SAH-EJ1 concentration in plasma: BQL (BQL represents below quantifiable limits (0.5 µg/mL))
female, 15 mg/kg IV, day 1, 8 h, mouse 1 of 3
  SAH-EJ1 concentration in plasma: BQL (BQL represents below quantifiable limits (0.5 µg/mL))
female, 15 mg/kg IV, day 1, 8 h, mouse 2 of 3
  SAH-EJ1 concentration in plasma: BQL (BQL represents below quantifiable limits (0.5 µg/mL))
female, 15 mg/kg IV, day 1, 8 h, mouse 3 of 3
  SAH-EJ1 concentration in plasma: BQL (BQL represents below quantifiable limits (0.5 µg/mL))
female, 15 mg/kg IV, day 1, 24 h, mouse 1 of 3
  SAH-EJ1 concentration in plasma: BQL (BQL represents below quantifiable limits (0.5 µg/mL))
female, 15 mg/kg IV, day 1, 24 h, mouse 2 of 3
  SAH-EJ1 concentration in plasma: BQL (BQL represents below quantifiable limits (0.5 µg/mL))
female, 15 mg/kg IV, day 1, 24 h, mouse 3 of 3
  SAH-EJ1 concentration in plasma: BQL (BQL represents below quantifiable limits (0.5 µg/mL))
Male mice, highest body weight dosage
  time by which peptide was not detectable in plasma: ≤ 4 h
male, 5 mg/kg IV, day 1, 1 h, mouse 3 of 3
  SAH-EJ1 concentration in plasma: BQL (BQL represents below quantifiable limits (0.5 µg/mL))
male, 5 mg/kg IV, day 1, 2 h, mouse 1 of 3
  SAH-EJ1 concentration in plasma: BQL (BQL represents below quantifiable limits (0.5 µg/mL))
male, 5 mg/kg IV, day 1, 2 h, mouse 2 of 3
  SAH-EJ1 concentration in plasma: BQL (BQL represents below quantifiable limits (0.5 µg/mL))
male, 5 mg/kg IV, day 1, 2 h, mouse 3 of 3
  SAH-EJ1 concentration in plasma: BQL (BQL represents below quantifiable limits (0.5 µg/mL))
male, 5 mg/kg IV, day 1, 4 h, mouse 1 of 3
  SAH-EJ1 concentration in plasma: BQL (BQL represents below quantifiable limits (0.5 µg/mL))
male, 5 mg/kg IV, day 1, 4 h, mouse 2 of 3
  SAH-EJ1 concentration in plasma: BQL (BQL represents below quantifiable limits (0.5 µg/mL))
male, 5 mg/kg IV, day 1, 4 h, mouse 3 of 3
  SAH-EJ1 concentration in plasma: BQL (BQL represents below quantifiable limits (0.5 µg/mL))
male, 5 mg/kg IV, day 1, 8 h, mouse 1 of 3
  SAH-EJ1 concentration in plasma: BQL (BQL represents below quantifiable limits (0.5 µg/mL))
male, 5 mg/kg IV, day 1, 8 h, mouse 2 of 3
  SAH-EJ1 concentration in plasma: BQL (BQL represents below quantifiable limits (0.5 µg/mL))
male, 5 mg/kg IV, day 1, 8 h, mouse 3 of 3
  SAH-EJ1 concentration in plasma: BQL (BQL represents below quantifiable limits (0.5 µg/mL))
male, 5 mg/kg IV, day 1, 24 h, mouse 1 of 3
  SAH-EJ1 concentration in plasma: BQL (BQL represents below quantifiable limits (0.5 µg/mL))
male, 5 mg/kg IV, day 1, 24 h, mouse 2 of 3
  SAH-EJ1 concentration in plasma: BQL (BQL represents below quantifiable limits (0.5 µg/mL))
male, 5 mg/kg IV, day 1, 24 h, mouse 3 of 3
  SAH-EJ1 concentration in plasma: BQL (BQL represents below quantifiable limits (0.5 µg/mL))
male, 10 mg/kg IV, day 1, 2 h, mouse 1 of 3
  SAH-EJ1 concentration in plasma: BQL (BQL represents below quantifiable limits (0.5 µg/mL))
male, 10 mg/kg IV, day 1, 2 h, mouse 2 of 3
  SAH-EJ1 concentration in plasma: BQL (BQL represents below quantifiable limits (0.5 µg/mL))
male, 10 mg/kg IV, day 1, 2 h, mouse 3 of 3
  SAH-EJ1 concentration in plasma: BQL (BQL represents below quantifiable limits (0.5 µg/mL))
male, 10 mg/kg IV, day 1, 4 h, mouse 1 of 3
  SAH-EJ1 concentration in plasma: BQL (BQL represents below quantifiable limits (0.5 µg/mL))
male, 10 mg/kg IV, day 1, 4 h, mouse 2 of 3
  SAH-EJ1 concentration in plasma: BQL (BQL represents below quantifiable limits (0.5 µg/mL))
male, 10 mg/kg IV, day 1, 4 h, mouse 3 of 3
  SAH-EJ1 concentration in plasma: BQL (BQL represents below quantifiable limits (0.5 µg/mL))
male, 10 mg/kg IV, day 1, 8 h, mouse 1 of 3
  SAH-EJ1 concentration in plasma: BQL (BQL represents below quantifiable limits (0.5 µg/mL))
male, 10 mg/kg IV, day 1, 8 h, mouse 2 of 3
  SAH-EJ1 concentration in plasma: BQL (BQL represents below quantifiable limits (0.5 µg/mL))
male, 10 mg/kg IV, day 1, 8 h, mouse 3 of 3
  SAH-EJ1 concentration in plasma: BQL (BQL represents below quantifiable limits (0.5 µg/mL))
male, 10 mg/kg IV, day 1, 24 h, mouse 1 of 3
  SAH-EJ1 concentration in plasma: BQL (BQL represents below quantifiable limits (0.5 µg/mL))
male, 10 mg/kg IV, day 1, 24 h, mouse 2 of 3
  SAH-EJ1 concentration in plasma: BQL (BQL represents below quantifiable limits (0.5 µg/mL))
male, 10 mg/kg IV, day 1, 24 h, mouse 3 of 3
  SAH-EJ1 concentration in plasma: BQL (BQL represents below quantifiable limits (0.5 µg/mL))
male, 15 mg/kg IV, day 1, 1 h, mouse 1 of 3
  SAH-EJ1 concentration in plasma: BQL (BQL represents below quantifiable limits (0.5 µg/mL))
male, 15 mg/kg IV, day 1, 2 h, mouse 1 of 3
  SAH-EJ1 concentration in plasma: BQL (BQL represents below quantifiable limits (0.5 µg/mL))
male, 15 mg/kg IV, day 1, 2 h, mouse 3 of 3
  SAH-EJ1 concentration in plasma: BQL (BQL represents below quantifiable limits (0.5 µg/mL))
male, 15 mg/kg IV, day 1, 4 h, mouse 1 of 3
  SAH-EJ1 concentration in plasma: BQL (BQL represents below quantifiable limits (0.5 µg/mL))
male, 15 mg/kg IV, day 1, 4 h, mouse 2 of 3
  SAH-EJ1 concentration in plasma: BQL (BQL represents below quantifiable limits (0.5 µg/mL))
male, 15 mg/kg IV, day 1, 4 h, mouse 3 of 3
  SAH-EJ1 concentration in plasma: BQL (BQL represents below quantifiable limits (0.5 µg/mL))
male, 15 mg/kg IV, day 1, 8 h, mouse 1 of 3
  SAH-EJ1 concentration in plasma: BQL (BQL represents below quantifiable limits (0.5 µg/mL))
male, 15 mg/kg IV, day 1, 8 h, mouse 2 of 3
  SAH-EJ1 concentration in plasma: BQL (BQL represents below quantifiable limits (0.5 µg/mL))
male, 15 mg/kg IV, day 1, 8 h, mouse 3 of 3
  SAH-EJ1 concentration in plasma: BQL (BQL represents below quantifiable limits (0.5 µg/mL))
male, 15 mg/kg IV, day 1, 24 h, mouse 1 of 3
  SAH-EJ1 concentration in plasma: BQL (BQL represents below quantifiable limits (0.5 µg/mL))
male, 15 mg/kg IV, day 1, 24 h, mouse 2 of 3
  SAH-EJ1 concentration in plasma: BQL (BQL represents below quantifiable limits (0.5 µg/mL))
male, 15 mg/kg IV, day 1, 24 h, mouse 3 of 3
  SAH-EJ1 concentration in plasma: BQL (BQL represents below quantifiable limits (0.5 µg/mL))

— publication PMC6582486, “Stapled EGFR peptide reduces inflammatory breast cancer and inhibits additional HER-driven models of cancer” (Journal of Translational Medicine, 2019)
